This is an account of results in patent US7745641B2, “Nitrogen-containing heterocyclic compound” (Kyowa Hakko Kirin Co., Ltd., priority 2005, dated 2010).

For one data set, the system named is Aurora. As to the kind of experiment: Aurora inhibitory activity using Western blotting method (phosphorylation of histone H3 Ser10). Particulars: 10 μmol/L, 30 minutes, HCT116 cells accumulated in M phase with Nocodazole. Type of data set: cell-based, human. The source says: It is known that Aurora phosphorylates Ser10 of histone H3 in the G2/M phase during the cell cycle [Molecular and Cellular Biology, Vol. 22, p. 874 (2002)]. Consequently, the inhibition of phosphorylation of histone H3 Ser10 in cells was detected by a Western blotting method using human colon cancer cell line HCT116 cells accumulated in the M phase. McCoy's 5A culture medium (GIBCO, Catalogue No. 16600-082) containing 10% bovine fetus serum (GIBCO, Catalogue No. 10099-141) was used for the cultivation of the cells. The HCT116 cells were inoculated and then treated with Nocodazole (Sigma Corporation, Catalogue No. M-1404) so that the cell cycle was accumulated to the M phase. A test compound (final concentration: 10 μmol/L) was added thereto, and the cells were incubated at 37° C. for 30 minutes. The cells were then recovered and washed with a phosphate buffered saline (PBS) once. The cells were suspended in a cell-solubilizing solution (50 mmol/L 2-[4-(2-hydroxyethyl)-1-piperazinyl]ethanesulfonic acid (HEPES) (pH 7.4), 150 mmol/L NaCl, 1 mmol/L ethylenediamine-N,N,N′,N′-tetraacetic acid disodium salt dihydrate (EDTA), 2.5 mmol/L ethylene glycol bis(2-aminoethylether)-N,N,N′,N′-tetraacetic acid (EGTA), 0.1% Tween-20 (Bio-Rad Laboratories Inc., Catalogue No. 170-6531), 10% β-glycerophosphate, 1 mmol/L NaF, 0.1 mmol/L Na3VO4, 1 mmol/L Pefabloc SC (Roche Diagnostics K.K., Catalogue No. 1 429 868), and Complete EDTA-free (Roche Diagnostics K.K., Catalogue No. 1 873 580)}, and the suspension was frozen and thawed. Subsequently, the supernatant obtained by centrifugal separation was used as a cell extraction solution. SDS-PAGE was performed using a 12.5% polyacrylamide gel under the condition that the amount of protein per sample was 30 μg in accordance with the method used by Laemmli et al. The protein was transferred onto a PVDF membrane (Millipore Corporation, Catalogue No. IPVH304F0) by a semi-dry method. The membrane was allowed to react with anti-phosphorylated histone H3 Ser10 antibody (Upstate Inc., Catalogue No. 06-570) used as a primary antibody, and an HRP-labeled anti-rabbit IgG antibody (Amersham biosciences, Catalogue No. NA934V) used as a secondary antibody. Subsequently, […] was detected using a SuperSignal West Pico chemiluminescence substrate (Pierce, Catalogue No. 34077).
(In general: In western blotting, separated proteins are transferred to a membrane and probed.)

In the next data set the target is T1, human FGFR3 (Homo sapiens, UniProt P22607).
T1 construct: the intracellular domain (448-759 amino acids) of human FGFR3; made in house; host or cells: insect cells (baculovirus)
The data set is described as follows: Fibroblast growth factor receptor 3 (FGFR3) inhibitory activity, time-resolved fluoroimmunoassay. In kind it is biochemical. Particulars: 10 μmol/L test compound. On the procedure: In order to determine FGFR3 inhibitory activity, the following method was employed. FGFR3 was prepared by allowing baculovirus that expresses a protein in which glutathione S-transferase (GST) was fused to the N-terminal of the intracellular domain (448-759 amino acids) of human FGFR3 to infect insect cells. Biotinylated polyglutamic acid-tyrosine peptide (Nihon Schering K.K., Catalogue No. 61GT0BAA) used as a substrate was immobilized on a 96-well plate coated with NeutroAvidin (Pierce, Catalogue No. 31000) and was then blocked with 0.25% gelatin to yield a plate for the determination of kinase reaction A solution containing, at final concentrations, 8 μg/L GST-fused FGFR3 protein, 20 mmol/L Tris-Cl (pH 7.5), 0.04% 2-mercaptoethanol, 0.04 mmol/L Na3VO4, 20 mmol/L MgCl2, 5 mmol/L MnCl2, 10 mmol/L ATP, 0.1% bovine serum albumin (BSA; Sigma Corporation, Catalogue No. A4503), 0.1% dimethyl sulfoxide (DMSO), and 10 μmol/L test compound was prepared. Subsequently, 50 μL of the solution was placed in each of the wells of the plate for the determination of kinase reaction, followed by enzymatic reaction at 24° C. for 60 minutes. The plate was washed with TBS-T [10 mM Tris-Cl (pH 7.5), 150 mmol/L NaCl, and 0.05% Tween 20 (Bio-Rad Laboratories Inc., Catalogue No. 170-6531)] four times, and allowed to react with europium-labeled anti-phosphotyrosine antibody (PerkinElmer Inc. Catalogue No. AD0160) at room temperature for 60 minutes. The plate was further washed with TBS-T four times. Subsequently, DELFIA. Enhancement Solution (PerkinElmer Inc. Catalogue No. 1244-105) was added to the plate, and time-resolved fluoroimmunoassay was performed (excitation wavelength: 340 nm, measuring wavelength: 615 nm). The relative activity (%) of a well in which the test compound was added was calculated using the value of a well containing the enzyme and 0.1% DMSO being 100% and the value of a well not containing the enzyme being 0%. The FGFR3 inhibitory activity (%) of the test compound was determined by subtracting the relative activity (%) from 100.

For a further data set, the target named is T2, Flt-3 (Homo sapiens, UniProt P36888).
T2 construct: His tag; purchased Upstate Inc. 14-500
T2 sequence (P36888 564-993 limits assumed): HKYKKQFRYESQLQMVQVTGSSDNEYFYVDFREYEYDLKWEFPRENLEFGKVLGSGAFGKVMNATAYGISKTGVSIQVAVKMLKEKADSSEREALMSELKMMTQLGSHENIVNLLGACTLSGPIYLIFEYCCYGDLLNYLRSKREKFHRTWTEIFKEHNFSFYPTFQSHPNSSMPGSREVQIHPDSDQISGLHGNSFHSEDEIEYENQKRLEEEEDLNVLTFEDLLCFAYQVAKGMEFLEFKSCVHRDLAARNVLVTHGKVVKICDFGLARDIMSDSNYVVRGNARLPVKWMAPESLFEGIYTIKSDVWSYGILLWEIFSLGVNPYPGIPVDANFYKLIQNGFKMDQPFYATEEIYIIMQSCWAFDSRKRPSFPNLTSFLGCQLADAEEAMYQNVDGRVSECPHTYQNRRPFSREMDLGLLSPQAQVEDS
The data set is described as follows: Flt-3 inhibitory activity, time-resolved fluoroimmunoassay. In kind it is biochemical. As to conditions: 10 μmol/L test compound. On the procedure: Flt-3 inhibitory activity was determined by a method described below.
Biotinylated polyglutamic acid-tyrosine peptide (Nihon Schering K.K., Catalogue No. 61GT0BAA) used as a substrate was immobilized on a 96-well plate (FIA-PLATE BLACK 96 well FALT-BOTTOM HIGH BINDING, Greiner Bio-one Co., Ltd., Catalogue No. 655077) coated with NeutroAvidin (Pierce, Catalogue No. 31000) and was then blocked with 0.25% gelatin to yield a plate for the determination of kinase reaction. A solution containing, at final concentrations, 8 μg/L His-tagged protein-fused Flt-3 (Upstate Inc., Catalogue No. 14-500), 20 mmol/L Tris-Cl (pH 7.5), 0.04% 2-mercaptoethanol, 0.04 mmol/L Na3VO4, 20 mmol/L MgCl2, 5 mmol/L MnCl2, 10 μmol/L ATP, 0.1% BSA, 0.1% DMSO, and […] test compound was prepared. Subsequently, 50 μL of the solution was placed in each of the wells of the plate for the determination of kinase reaction, followed by enzymatic reaction at 24° C. for 60 minutes. The plate was washed with TBS-T [10 mmol/L Tris-Cl (pH 7.5), 150 mmol/L NaCl, and 0.05% Tween 20 (Bio-Rad Laboratories Inc., Catalogue No. 170-6531)] four times, and allowed to react with europium-labeled anti-phosphotyrosine antibody (PerkinElmer Inc. Catalogue No. AD0160) at room temperature for 60 minutes. The plate was further washed with TBS-T four times. Subsequently, time-resolved fluoroimmunoassay was performed (excitation wavelength: 340 nm, measuring wavelength: 615 nm). The relative activity (%) of a well to which the enzyme and the test compound were added was calculated using the value of a well to which the test compound was not added being 100% and the value of a well to which the enzyme and the test compound were not added being 0%. The Flt-3 inhibitory activity (%) of the test compound was determined by subtracting the relative activity (%) from 100.

A further data set concerns HCT116 cells. As to the kind of experiment: Evaluation of Aurora inhibitory activity by analysis of nuclear morphology (enlarged lobed nuclei). In kind it is cell-based, human. As to conditions: concentration in the range of 0.1 to 1 μmol/L, 17 hours contact; optimal concentration different in each compound. On the procedure: 281 (2003)]. Consequently, enlarged lobed nuclei-inducibility of test compounds for HCT116 cells was evaluated. McCoy's 5A culture medium (GIBCO, Catalogue No. 16600-082) containing 10% bovine fetus serum (GIBCO, Catalogue No. 10099-141) was used for the cultivation of the cells. HCT116 cells were inoculated and, 24 hours later, each test compound was added thereto.

Data set [1] deals with human-tumor-transplant mouse models. Particulars: cited from earlier work.
Data set [2] has as its system human-tumor-transplant rat models. As to conditions: cited from earlier work.

Each structure is given as a SMILES string. Where only a bound is given, the exact number is not on record here.

One may read the inhibition as the percentage by which the read-out fell short of the control. A higher inhibition goes with strong suppression. By melting point is commonly meant the temperature, or range, at which the solid turns liquid.

T1 sequence (P22607 448-759): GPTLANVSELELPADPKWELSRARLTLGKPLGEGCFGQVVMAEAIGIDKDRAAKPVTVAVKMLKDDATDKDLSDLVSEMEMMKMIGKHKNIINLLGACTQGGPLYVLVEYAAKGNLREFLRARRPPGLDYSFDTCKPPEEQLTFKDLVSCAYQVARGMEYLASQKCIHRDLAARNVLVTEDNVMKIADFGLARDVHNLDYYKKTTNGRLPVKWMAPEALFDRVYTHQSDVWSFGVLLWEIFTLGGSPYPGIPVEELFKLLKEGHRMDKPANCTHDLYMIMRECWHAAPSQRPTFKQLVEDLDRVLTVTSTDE

The molecule `COCCN(C)Cc1ccc2[nH]c(-c3cc(OC)c(OS(C)(=O)=O)c4c3C(=O)NC4)cc2c1` [Compound 455, 4-Methanesulfonyloxy-5-methoxy-7-{1H-5-[N-(2-methoxyethyl)methylaminomethyl]indol-2-yl}isoindolinone] came in with a melting point of 197 to 199 °C. In the data set on Aurora, the “suppression of the phosphorylation of histone H3 Ser10 in HCT116 cells” value is “almost completely suppressed”. The inhibition at 10 µM at human FGFR3 was not below 50%. In addition, the inhibition at 10 µM against Flt-3 was not below 50%. Also, the “ability of inducing enlarged lobed nuclei for HCT116 cells” value in the data set with HCT116 cells was “show ability of inducing enlarged lobed nuclei”.

For the molecule `Nc1nc(Nc2ccc(S(N)(=O)=O)cc2)nn1C(=O)c1c(F)cccc1F` [JNJ-7706621], in data set [1], the antitumor activity entry was “exhibits an antitumor activity”.

For `Cc1cc(Nc2cc(N3CCN(C)CC3)nc(Sc3ccc(NC(=O)C4CC4)cc3)n2)n[nH]1` [VX-680], the antitumor activity result in data set [2] and in data set [1] was “exhibits an antitumor activity” each time.
